Experimental data reported in US11053234B2 (GlaxoSmithKline Intellectual Property Development Limited, priority 2016, dated 2021).

Each compound was assayed against T1, haematopoietic prostaglandin D synthase (H-PGDS) (Homo sapiens, UniProt O60760) (assay: H-PGDS RapidFire high throughput mass spectrometry assay (conversion of PGH2 to PGD2)). Conditions: 10 nM H-PGDS, PGH2 formed in situ by COX-2 from arachidonic acid.
T1 construct: Full length human H-PGDS cDNA (Invitrogen Ultimate ORF 10H13026) was amplified by PCR; 6-His (N); TEV protease cleavage site (N); made in house; host or cells: E. coli BL21 (DE3*), vector pET22b+
Type: biochemical
Procedure, shortened: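 RapidFire SPE–MS read-out calculated percent conversion from relative PGD2 and PGF2α (substrate surrogate) levels. Recombinant full-length human H-PGDS (His-tag, E. coli) turned over PGH2, produced in situ at ˜10 μM by human COX-2 (FLAG-tag, Sf9 cells) acting on arachidonic acid.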

T1 sequence (O60760 whole entry): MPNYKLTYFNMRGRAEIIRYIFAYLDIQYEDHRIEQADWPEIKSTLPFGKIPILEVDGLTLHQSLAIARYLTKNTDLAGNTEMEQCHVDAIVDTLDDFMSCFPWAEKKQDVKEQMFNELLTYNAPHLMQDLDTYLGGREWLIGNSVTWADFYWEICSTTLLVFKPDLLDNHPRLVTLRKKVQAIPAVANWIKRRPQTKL

Row | Structure (SMILES) | Potency Range (mean pIC50)
1 | CS(=O)(=O)C1CCC(NC(=O)N2CC(Oc3cccc4scnc34)C2)CC1 (stereo not shown) [Example 98, 3-(Benzo[d]thiazol-4-yloxy)-N-(4-(methylsulfonyl)cyclohexyl)azetidine-1-carboxamide] | ** (pIC50 = 6.0-7.0)

Same assay, conditions: 10 nM H-PGDS, PGH2 formed in situ by COX-2 from arachidonic acid; read-out: Potency Range (mean pIC50) (converted)

Row | Structure (SMILES) | IC50 [nM]
2 | CC(C)(O)c1csc(NC(=O)N2CC(Oc3cccc4scnc34)C2)n1 [Example 56, 3-(Benzo[d]thiazol-4-yloxy)-N-(4-(2-hydroxypropan-2-yl)thiazol-2-yl)azetidine-1-carboxamide] | 100 to 1000
3 | O=C(NC1CN(c2ccnc(Cl)n2)C1)N1CC(Oc2cc(F)cc3scnc23)C1 [Example 130, N-(1-(2-Chloropyrimidin-4-yl)azetidin-3-yl)-3-((6-fluorobenzo[d]thiazol-4-yl)oxy)azetidine-1-carboxamide] | 10 to 79.4
4 | O=C(NCc1cccs1)[C@H]1C[C@H](Oc2cccc3scnc23)C1 [Example 250] | 100 to 1000
5 | Cn1cc(NC(=O)N2CC(Oc3cccc4scnc34)C2)cn1 [Example 324, 3-(Benzo[d]thiazol-4-yloxy)-N-(1-methyl-1H-pyrazol-4-yl)azetidine-1-carboxamide] | 100 to 1000
6 | CCOC(=O)c1csc(NC(=O)[C@H]2C[C@H](Oc3cc(F)ccc3OC(F)F)C2)n1 [Example 31, ethyl 2-((trans)-3-(2-(difluoromethoxy)-5-fluorophenoxy)cyclobutanecarboxamido)thiazole-4-carboxylate] | < 10
7 | O=C(NC1CN(c2nccc(Cl)n2)C1)[C@H]1C[C@H](Oc2cc(F)ccc2OC(F)F)C1 [Example 7, (trans)-N-(1-(4-Chloropyrimidin-2-yl)azetidin-3-yl)-3-(2-(difluoromethoxy)-5-fluorophenoxy)cyclobutanecarboxamide] | < 10
8 | O=C(c1csc(NC(=O)[C@H]2C[C@H](Oc3cc(F)ccc3OC(F)F)C2)n1)C1CC1 [Example 32, (trans)-N-(4-(Cyclopropanecarbonyl)thiazol-2-yl)-3-(2-(difluoromethoxy)-5-fluorophenoxy)cyclobutanecarboxamide] | < 10
9 | CC(C)c1nsc(NC(=O)N2CC(Oc3cccc4scnc34)C2)n1 [Example 337, 3-(Benzo[d]thiazol-4-yloxy)-N-(3-isopropyl-1,2,4-thiadiazol-5-yl)azetidine-1-carboxamide] | < 10
10 | CC(C)(O)[C@H]1CC[C@H](NC(=O)[C@H]2C[C@H](Oc3cc(F)cc4ccoc34)C2)CC1 [Example 227, (trans)-3-((5-Fluorobenzofuran-7-yl)oxy)-N-((trans)-4-(2-hydroxypropan-2-yl)cyclohexyl)cyclobutanecarboxamide] | 10 to 79.4
11 | CC(C)(O)[C@H]1CC[C@H](NC(=O)N2CC(Oc3csc4cccnc34)C2)CC1 [Example 226, N-((trans)-4-(2-Hydroxypropan-2-yl)cyclohexyl)-3-(thieno[3,2-b]pyridin-3-yloxy)azetidine-1-carboxamide] | 10 to 79.4
12 | COCCO[C@H]1CC[C@H](NC(=O)N2CC(Oc3cccc4scnc34)C2)CC1 [Example 59, 3-(Benzo[d]thiazol-4-yloxy)-N-((trans)-4-(2-methoxyethoxy)cyclohexyl)azetidine-1-carboxamide] | 10 to 79.4
13 | CC(O)(CO[C@H]1CC[C@H](NC(=O)N2CC(Oc3cccc4scnc34)C2)CC1)C1CC1 (mixture of isomers) [Example 100, Racemic 3-(Benzo[d]thiazol-4-yloxy)-N-((trans)-4-(2-cyclopropyl-2-hydroxypropoxy)cyclohexyl)azetidine-1-carboxamide] | 10 to 79.4
14 | O=C(NC1CCN(c2ccccn2)C1)N1CC(Oc2cccc3scnc23)C1 (racemic) [Example 87, Racemic 3-(Benzo[d]thiazol-4-yloxy)-N-(1-(pyridin-2-yl)pyrrolidin-3-yl)azetidine-1-carboxamide] | 100 to 1000
15 | CNC(=O)c1ccc(N2CC(NC(=O)[C@H]3C[C@H](Oc4cccc5scnc45)C3)C2)nc1 [Example 38, 6-(3-((trans)-3-(Benzo[d]thiazol-4-yloxy)cyclobutanecarboxamido)azetidin-1-yl)-N-methylnicotinamide] | 10 to 79.4
16 | COc1ccc(F)cc1O[C@H]1C[C@H](C(=O)NN2CCc3ccccc32)C1 [Example 146, (trans)-3-(5-Fluoro-2-methoxyphenoxy)-N-(indolin-1-yl)cyclobutanecarboxamide] | 10 to 79.4
17 | O=C(N[C@H]1CC[C@H](N2CC(F)(F)C2)CC1)N1CC(Oc2cccc3scnc23)C1 [Example 57, 3-(Benzo[d]thiazol-4-yloxy)-N-((trans)-4-(3,3-difluoroazetidin-1-yl)cyclohexyl)azetidine-1-carboxamide] | 100 to 1000
18 | COCCO[C@H]1CC[C@H](NC(=O)[C@H]2C[C@H](Oc3cc(F)cc4scnc34)C2)CC1 [Example 115, (trans)-3-((6-Fluorobenzo[d]thiazol-4-yl)oxy)-N-((trans)-4-(2-methoxyethoxy)cyclohexyl)cyclobutanecarboxamide] | 100 to 1000

Row | Structure (SMILES) | IC50 [nM]
19 | CCOC(=O)c1csc(NC(=O)[C@H]2C[C@H](Oc3cccc4cccnc34)C2)n1 [Example 192, Ethyl 2-((trans)-3-(quinolin-8-yloxy)cyclobutanecarboxamido)thiazole-4-carboxylate] | < 10
20 | C[C@@H]1[C@H](Oc2cccc3scnc23)CN1C(=O)N[C@H]1CC[C@H](C(C)(C)O)CC1 [Example 305, (2R,3R)-3-(Benzo[d]thiazol-4-yloxy)-N-((trans)-4-(2-hydroxypropan-2-yl)cyclohexyl)-2-methylazetidine-1-carboxamide] | 10 to 79.4
21 | COCCNc1nccc(N2CC(NC(=O)[C@H]3C[C@H](Oc4cccc5scnc45)C3)C2)n1 [Example 72, (trans)-3-(Benzo[d]thiazol-4-yloxy)-N-(1-(2-((2-methoxyethyl)amino)pyrimidin-4-yl)azetidin-3-yl)cyclobutanecarboxamide] | 100 to 1000
22 | COc1ccc(F)cc1O[C@H]1C[C@H](C(=O)Nc2nc(C(=O)N(C)C)co2)C1 [Example 158, 2-((trans)-3-(5-Fluoro-2-methoxyphenoxy)cyclobutanecarboxamido)-N,N-dimethyloxazole-4-carboxamide] | 10 to 79.4
23 | O=C(N[C@H]1CC[C@@H](NC(CO)C(F)(F)F)CC1)N1CC(Oc2cc(F)cc3scnc23)C1 (mixture of isomers) [Example 124, Racemic 3-((6-Fluorobenzo[d]thiazol-4-yl)oxy)-N-((cis)-4-((1,1,1-trifluoro-3-hydroxypropan-2-yl)amino)cyclohexyl)azetidine-1-carboxamide] | 10 to 79.4
24 | O=C(N[C@H]1CC[C@H](C(O)C2CC2)CC1)[C@H]1C[C@H](Oc2cc(F)ccc2OC(F)F)C1 (mixture of isomers) [Example 27, Racemic (trans)-N-((trans)-4-(Cyclopropyl(hydroxy)methyl)cyclohexyl)-3-(2-(difluoromethoxy)-5-fluorophenoxy)cyclobutanecarboxamide] | 10 to 79.4
25 | CCOC(=O)NC12CC(NC(=O)[C@H]3C[C@H](Oc4cccc5scnc45)C3)(C1)C2 [Example 319, Ethyl (3-((trans)-3-(benzo[d]thiazol-4-yloxy)cyclobutane-1-carboxamido)bicyclo[1.1.1]pentan-1-yl)carbamate] | 10 to 79.4
26 | O=C(NC1CCN(c2ccccn2)CC1)N1CC(Oc2cccc3scnc23)C1 [Example 88, 3-(Benzo[d]thiazol-4-yloxy)-N-(1-(pyridin-2-yl)piperidin-4-yl)azetidine-1-carboxamide] | 10 to 79.4
27 | CC(C)(O)C12C3C4C1C1C2C3C41NC(=O)[C@H]1C[C@H](Oc2cccc3scnc23)C1 (stereo partly drawn) [Example 320, (trans)-3-(Benzo[d]thiazol-4-yloxy)-N-(4-(2-hydroxypropan-2-yl)cuban-1-yl)cyclobutane-1-carboxamide] | 10 to 79.4
28 | O=C(N[C@H]1C[C@H](Nc2ncccn2)C1)[C@H]1C[C@H](Oc2cccc3scnc23)C1 [Example 73, (trans)-3-(Benzo[d]thiazol-4-yloxy)-N-((trans)-3-(pyrimidin-2-ylamino)cyclobutyl)cyclobutanecarboxamide] | 100 to 1000
29 | CCOCCNC(=O)c1ccc(N2CC(NC(=O)[C@H]3C[C@H](Oc4cc(F)cc5scnc45)C3)C2)nn1 [Example 234, N-(2-Ethoxyethyl)-6-(3-((trans)-3-((6-fluorobenzo[d]thiazol-4-yl)oxy)cyclobutanecarboxamido)azetidin-1-yl)pyridazine-3-carboxamide] | 10 to 79.4
30 | CS(=O)(=O)c1ccc(NC(=O)[C@H]2C[C@H](Oc3cccc4scnc34)C2)cc1 [Example 242, (trans)-3-(Benzo[d]thiazol-4-yloxy)-N-(4-(methylsulfonyl)phenyl)cyclobutanecarboxamide] | 10 to 79.4
31 | Cc1nnc(NC(=O)[C@H]2C[C@H](Oc3cccc4scnc34)C2)s1 [Example 331, (trans)-3-(Benzo[d]thiazol-4-yloxy)-N-(5-methyl-1,3,4-thiadiazol-2-yl)cyclobutane-1-carboxamide] | 10 to 79.4
32 | CC(C)(O)[C@H]1CC[C@H](NC(=O)[C@H]2C[C@H](Oc3ccccc3Cl)C2)CC1 [Example 282, (trans)-3-(2-Chlorophenoxy)-N-((trans)-4-(2-hydroxypropan-2-yl)cyclohexyl)cyclobutanecarboxamide] | 100 to 1000
33 | CC(C)(O)[C@H]1CC[C@H](NC(=O)[C@H]2C[C@H](Oc3ccccc3OC(F)(F)F)C2)CC1 [Example 259, (trans)-N-((trans)-4-(2-Hydroxypropan-2-yl)cyclohexyl)-3-(2-(trifluoromethoxy)phenoxy)cyclobutanecarboxamide] | 100 to 1000
34 | O=C(Nc1ccnc(C2CC2)n1)N1CC(Oc2cccc3scnc23)C1 [Example 312, 3-(Benzo[d]thiazol-4-yloxy)-N-(2-cyclopropylpyrimidin-4-yl)azetidine-1-carboxamide] | 10 to 79.4
